Data set [1] relates to ISA virus. The experiment in a line: Inhibition assay of the replicative cycle of ISAV in SHK-1 cells (real-time RT-PCR of supernatant). In kind it is cell-based.
A short description of data set [2]: Degradation when autoclaved at 121° C., 15 psi, 25% relative humidity. In kind it is physicochemical.
Data set [3] relates to RNA viruses. As to conditions: in general, in vitro; read-out: EC50 values (effective concentration 50%); cited from earlier work.
Data set [4] has as its system VHSV virus (Viral Hemorrhagic Septicemia Virus). The conditions noted are these: EPC cells, cited from earlier work.
Data set [5] in a line: Example 1: toxicity in healthy uninfected fish given the highest dose (tank C2).
Data set [6] deals with ISA virus. The experiment in a line: Example 1: hematocrit of ISAV-infected treated fish. In kind it is in vivo, Salmo salar. As to conditions: live fish.
For data set [7], the system named is IPNV. The conditions noted are these: solution in the tank, exposure once during two hours; cited from earlier work.
Data set [8] has as its system ISA virus. The experiment in a line: Example 1: determination of viral load in heart samples (real-time RT-PCR, TCID50). The conditions noted are these: for viral load in infected fish (intraperitoneal): FIG. 9. For orientation: Real-time PCR tracks product formation cycle by cycle.
Data set [9] concerns SHK-1 cells. The conditions noted are these: Atlantic salmon, 3 days.
The test system of data set [10] is ISA virus. The experiment in a line: Example 1: necropsies analysis of infected treated fish. Format: in vivo, Salmo salar. As to conditions: infected fish of tanks T1 and T2; FIGS. 14 and 15. The text has this: The necropsy of the fish in the assay of controlled environment was made through external and internal clinical analysis, with registration of morphometric parameters, description and registration of pathological features (necropsy itself), sampling of internal organs (heart, kidney, spleen and gills) in ethanol and RNA later, with counter samples (i.e. duplication of the samples of the organs same), along with the sample of muscle locket with skin to be used afterwards in analysis of deficiency (presence of the Antiviral in the muscle).
The fish were subjected to necropsy process mostly within 24 hours post sampling.
At the end of the assay all fish were euthanized and necropsied.

Data set [11] deals with SHK-1 cells. The experiment in a line: Cytotoxicity: cell viability of SHK-1 cells (propidium iodide cytometry). As to conditions: relative to effective concentration.
The conditions of data set [12]: 48 hours.
In data set [13] the test system is cell cultures. As to conditions: cited from earlier work.

≈ marks a conversion by molar mass, not a printed value. Bounds are passed on as bounds.

On to `CCOC(=O)C1=C[C@@H](OC(CC)CC)[C@H](NC(C)=O)[C@@H](N)C1` [oseltamivir], for which the “inhibition of the replication of ISA virus” value in [1] (concentrations as high as 300 μg/mL, SHK-1 cells, 3 days post-infection, FIG. 1) is “no more than 60%”.

As for `NC(=O)c1ncn([C@@H]2O[C@H](CO)[C@@H](O)[C@H]2O)n1` [ribavirin, 1-beta-D-ribofuranosyl-1H-1,2,4-triazole-3-carboxamide], the “% Antiviral” value in [2] (5 minutes in autoclave) worked out at 97.2%; in data set [2] (10 minutes in autoclave) it was 91.9%; in data set [2] (20 minutes drying + 30 minutes in autoclave), 99.5%; in data set [2] (30 minutes in autoclave), 90.3%. Also, the EC50 was not below 1 µM in data set [3] and approximately 0.4 mg/L (≈ 1.64 µM) in data set [1] (72 h, read-out: concentration which inhibits 50% of ISA virus replication (EC50)). In addition, in data set [4] (25 μg/ml added at 0 hours post infection, at 10 hours post infection), the RNA inhibition is reported as 99.8%. Moreover, the “inhibition of the virus” value in data set [4] (concentrations of 5, 10 and 25 μg/ml) is given as “strong inhibition”. The signs of anemia result in data set [5] (healthy fish receiving a high dose (C2)) is on record as “no signs of developing anemia”. Moreover, the hematocrit in [5] (tank C2, healthy, dose of 1600 μg/mL) is on record as 54%; in data set [6] (tank T1, infected, dose of 800 μg/mL), approximately 45%; in data set [6] (tank T2, infected, dose of 400 μg/mL), approximately 45%. Moreover, the “decreased rate of dead fish” value in [7] is listed as “about 5%”. In addition, the “viral load in dead fish” value in data set [8] (highest dose (T1) compared with T2 and C3, FIG. 8) is recorded as “significantly lower”. Also, the “viral load in infected fish (intraperitoneal)” value in [8] (highest dose (T1)) was “lower”; in data set [8] (lowest dose (T2) versus untreated (C3)), “practically the same”. Moreover, in data set [8] (tanks T1 and T2 versus C3, FIG. 6), the “average viral load (total)” value is reported as “smaller than the uninfected fish”. Besides, in [9], the “concentration that produces 50% of cell toxicity (CC50)” value is more than 400000 mg/L. Further, the necropsy findings entry in data set [10] is recorded as “mild inflammatory signs”. For the same molecule, the “no cytotoxicity in concentrations times higher than the actual” value in data set [11] is “up to 10^7 times”. Further, the “stability of the aqueous solution” value in [12] was not above 48 h. Further, the CC50 in data set [13] is 100 mg/L (≈ 409 µM).

On to `O=C(O)C1=C[C@@H](O)[C@@H](O)[C@H](O)C1` [shikimic acid], for which, in data set [1] (up to concentrations of 300 μg/ml, FIG. 2), the viral replication inhibition entry is on record as “no viral replication inhibition”.

Usually CC50 stands for the concentration giving 50% cytotoxicity.

Source of the values: patent publication US20130190263A1 (LABORATORIO DE DIAGNOSTICO GAM, S.A., priority 2010, published 2013).
